US20130096067A1, “DROSOPHILA TUMOR STEM CELL MODEL AND USES THEREOF” (priority 2011, published 2013)
Structures can show the parent of a compound that is named as a salt. Where two headings read alike, the source gives them in different places. Peptide text beside a SMILES is read from it. * marks the point of attachment. Cbz = O=C(OCc1ccccc1)*

Tested on: Raf-1^gof intestinal tumors
Details: for Log2 (fold) of luciferase activity relative to DMSO controls / Fold (luciferase activity relative to DMSO controls): ICCB compounds fed in vials to flies with one-day old Raf-1^gof tumors
[1] = screen of 480 ICCB compounds in vials, compounds fed to flies with one-day old Raf-1^gof tumors, assessed three days later, esg-Gal4 luciferase
[2] = screen of 480 ICCB compounds in vials, compounds fed to flies with one-day old Raf-1^gof tumors, assessed three days later, esg-Gal4 luciferase, averaged from multiple wells
[3] = assessed three days later, averaged from multiple wells
Note: test concentration or dose not given here.

Row | Structure (SMILES) | Log2 (fold) (luciferase activity, log2 of the fold difference relative to DMSO controls) [1] | Fold (luciferase activity, fold difference relative to DMSO controls) [2] | also measured
1 | CCCCCCCC/C=C\C/C=C\C/C=C\CCCC(=O)NCCO [MEAD ETHANOLAMIDE] | −0.322 | 0.800 | –
2 | COC(C)(C)CCCC(C)C/C=C/C(C)=C/C(=O)O (stereo not shown) [METHOPRENE ACID] | −0.328 | 0.796 | –
3 | CC(C)C[C@@H](C=O)NC(=O)[C@H](CC(C)C)NC(=O)[C@H](CC(C)C)NC(=O)OCc1ccccc1 [MG-132] (Cbz-Leu-Leu-Leu-aldehyde) | – | – | Log2 (fold) of luciferase activity relative to DMSO controls (assessed three days later): 0.097; Fold (luciferase activity relative to DMSO controls) [3]: 1.070 fold
4 | Nc1cc(N2CCCCC2)nc(N)[n+]1OS(=O)(=O)[O-] [MINOXIDIL SULFATE] | −0.417 | 0.749 | –
5 | Nc1cc(N2CCCCC2)nc(N)[n+]1[O-] [MINOXIDIL] | −0.292 | 0.817 | –
6 | O=S(=O)(c1cccc2c(I)cccc12)N1CCCNCC1 [ML7] | – | – | Log2 (fold) of luciferase activity relative to DMSO controls (assessed three days later): 0.192; Fold (luciferase activity relative to DMSO controls) [3]: 1.143 fold
7 | O=S(=O)(c1cccc2c(Cl)cccc12)N1CCCNCC1 [ML9] | −0.458 | 0.728 | –
8 | Clc1cccc(Nc2nnc(-c3ccccc3)c3ccccc23)c1 [MY-5445] | – | – | Log2 (fold) of luciferase activity relative to DMSO controls (assessed three days later): −0.037; Fold (luciferase activity relative to DMSO controls) [3]: 0.975 fold
9 | CC1=C(CC/C(C)=C/CCC2=CC[C@H](C3=CC(=O)O[C@H]3O)O[C@H]2O)C(C)(C)CCC1 [Manoalide] | −0.490 | 0.712 | –
10 | CC[C@H](C)C(=O)O[C@H]1C[C@@H](C)C=C2C=C[C@H](C)[C@H](CC[C@@H]3C[C@@H](O)CC(=O)O3)[C@H]21 [Mevinolin (lovastatin)] | −0.512 | 0.701 | –
11 | Cc1[nH]c(=O)c(C#N)cc1-c1ccncc1 [Milrinone] | −0.615 | 0.653 | –
12 | O=C(O)c1ccc(/C2=C3\C=CC(=N3)/C(c3ccc(C(=O)O)cc3)=c3/cc/c4[n]3[Mn]([Cl])[n]3c2ccc3/C(c2ccc(C(=O)O)cc2)=C2/C=CC(=N2)\C=4c2ccc(C(=O)O)cc2)cc1 [MnTBAP] | −0.245 | 0.844 | –
13 | CCOC(=O)C1=C(C)NC(=S)NC1c1cccc(O)c1 (stereo not shown) [Monastrol] | −0.607 | 0.656 | –
14 | COc1c(C)c2c(c(O)c1C/C=C(\C)CCC(=O)O)C(=O)OC2 [Mycophenolic acid] | −0.577 | 0.670 | –
15 | CC(C)n1cnc2c(NCc3ccccc3)nc(NCCO)nc21 [N9-Isopropylolomoucine] | −0.490 | 0.712 | –
16 | CCCCCCCCCCCCC/C=C/[C@@H](O)[C@H](CO)N(C)C [N,N-DIMETHYLSPHINGOSINE] | −0.487 | 0.713 | –
17 | CCCCC/C=C\C\C=C/C=C/C=C/[C@@H](SCC(NC(C)=O)C(=O)O)[C@@H](O)CCCC(=O)O (stereo partly shown) [N-ACETYL-LEUKOTRIENE E4] | −0.318 | 0.802 | –
18 | CCCCC/C=C\C/C=C\C/C=C\C/C=C\CCCC(=O)NCC(=O)O [N-ARACHIDONOYLGLYCINE] | – | – | Fold (luciferase activity, fold difference relative to DMSO controls) (in vivo): 0.664; Log2 (fold) (luciferase activity, log2 of the fold difference relative to DMSO controls) (in vivo): −0.590
19 | CCCCC/C=C\C/C=C\CCCCCCCC(=O)NCC(=O)O [N-LINOLEOYLGLYCINE] | −0.285 | 0.821 | –
20 | COC(=O)C1=C(C)NC(C)=C(C(=O)OCCN(C)Cc2ccccc2)C1c1cccc([N+](=O)[O-])c1 (stereo not shown) [NICARDIPINE] | −0.433 | 0.741 | –
21 | COC(=O)C1=C(C)NC(C)=C(C(=O)OC)C1c1ccccc1[N+](=O)[O-] [NIFEDIPINE] | −0.417 | 0.749 | –
22 | O=C(O)c1cccnc1Nc1cccc(C(F)(F)F)c1 [NIFLUMIC ACID] | – | – | Log2 (fold) of luciferase activity relative to DMSO controls (assessed three days later): −0.201; Fold (luciferase activity relative to DMSO controls) [3]: 0.870 fold
23 | COC(=O)C1=C(C)NC(C)=C(C(=O)OCCCN2CCC(c3ccccc3)(c3ccccc3)CC2)[C@H]1c1cccc([N+](=O)[O-])c1 [NIGULDIPINE] | – | – | Fold (luciferase activity, fold difference relative to DMSO controls) (in vivo): 0.812; Log2 (fold) (luciferase activity, log2 of the fold difference relative to DMSO controls) (in vivo): −0.301
